In patent publication US20260327211A1, “MODULATORS OF A POTASSIUM CHANNEL AND OF TRPV1 CHANNEL AND USES THEREOF” (Bsense Bio Therapeutics Ltd., priority 2023, published 2026):
pEC50: −log10 of the molar value. Where two headings read alike, the source gives them in different places.

Legend:
hKv7.3/5 = target: T1, hKv7.3/5 (Homo sapiens, UniProt O43525+Q9NR82); experiment: Kv7.3/5 HCS, FLIPR potassium assay; type: cell-based
T1 construct: expressed in transfected cells; host or cells: CHO
Protocol: (§1) Cell culture: Chinese hamster ovary (CHO) cell-line cells were cultured in F-12 nutrient mixture (Biological Industries) supplemented with 10% fetal bovine serum with 1% penicillin-streptomycin (Biological Industries) in a humidified 5% CO2 incubator at 37° C. To express the appropriate gene either Kv7.3/5, Kv7.4 or TRPA1 5 μg plasmid was transfected using Amaxa, DT-133 program, with p-3 Kit.
(§2) Kv7.3/5 and 7.4HCS using FLIPR Potassium Assay Kit: Kv7.3/5 and 7.4 HCS using the FLIPR Potassium Assay Kit was performed similarly to the Kv7.2/3 HCS, except that the Tecan Spark plate-reader injectors were primed with Tl+(1 mM Tl2SO4) or Tl++K+(1 mM Tl2SO4; 5 mM K2SO4) for Kv7.3/5, or Tl+(1 mM Tl2SO4) or Tl++K+(1 mM Tl2SO4; 10 mM K2SO4) for Kv7.4 for channel activation and data correction.
(§3) FLIPR Potassium Assay Kit: The FLIPR Potassium Assay Kit (R8222 FLIPR Potassium Assay Explorer Kits, Molecular Devices) was used with transfected CHO cells.
(§4) According to optimization process, to achieve a uniform and consistent screening condition of molecules, the following protocol was established: 2 days following transfection cells were seeded in 384-well, black-walled, clear-bottomed, at a density of 5,000 cells per well 24 hours before the assay conductance and incubated overnight in their normal growth medium. On the experiment day the medium was replaced with HBSS, HEPES, and the tested compound/vehicle (0.2% DMSO). Dye solution (prepared according to the manufacturer) was added to the wells and plates were incubated for 1.5 hour light-protected in room temperature. The Tecan Spark plate-reader injectors were primed with Tl+(1 mM Tl2SO4) or Tl++K+(1 mM Tl2SO4; 5 mM K2SO4) for Kv7.3/5 channel activation and data correction or Tl+(1 mM Tl2SO4) or Tl++K+(1 mM Tl2SO4; 10 mM K2SO4) for Kv7.4 for channel activation and data correction. […] To calculate IC50 values, the data was fitted to sigmoidal regression using Prism GraphPad.

[1] = Plasma protein binding, rat; type: in vitro ADME; conditions: read-out: PPB fu (rat)
Protocol: Incubation: Test compounds or the positive control warfarin were introduced into 10% plasma samples (Sourced from WuXi DMPK labs or from commercial vendors) to a concentration of 2 μM. A portion of 150 μL of the compound-containing plasma sample was added to one chamber of a 96-well equilibrium HTD dialysis plate. An equal volume of dialysis buffer was added to the corresponding chamber. A plasma sample was also taken before the incubation and designated as the T0 sample, serving for recovery calculation. The plate was incubated in a humidified 5% CO2 incubator at 37° C. for 4 hours. Each incubation was set up in triplicate.
Sample extraction and preparation: Following the incubation period, samples of 50 μL were drawn from both the plasma side and the buffer side and each was mixed with an equal volume of blank plasma. All matrix-matched samples were quenched using a stop solution containing an internal standard (IS).
Sample Analysis: The samples were subsequently analyzed by LC-MS/MS. The concentrations of the test compound in plasma and buffer samples were quantified based on the peak area ratio of analyte to the internal standard, with no requirement for a standard curve.

Rat pharmacokinetics = type: in vivo; conditions: for clearance: read-out: PK: Cl; for bioavailability: po, 10 mg/kg; for half-life: read-out: PK: T1/2 (converted)
Protocol: The pharmacokinetic (PK) properties of test compound following single intravenous (IV) bolus and oral gavage (PO) administration in male Sprague-Dawley (SD) rats were determined in this study.
Test compound administration: Six male Sprague Dawley (SD) rats were divided into two designated groups, Group 1 and Group 2, each composed of three rat subjects. Group 1 animals were subjected to a single intravenous bolus administration of the test compound at a dosage of 1 mg/kg. Group 2 animals were administered with the test compound orally in a single dose, at a concentration of 10 mg/kg. Throughout the study, the animals had unhindered access to food. The test compound was administered at a concentration of 0.5 mg/mL and dose volume of 2 mL/kg for Group 1, and at a concentration of 1 mg/mL and dose volume of 10 mL/kg, for Group 2.
Sample extraction and analysis: Plasma samples were systematically collected at varying time points of 0.083 (only for Group 1), 0.25, 0.5, 1, 2, 4-, 6-, 8-, and 24-hours post-dose. LC-MS/MS was used to determine the test compound's concentration within the collected plasma samples. Data reflecting plasma concentration in correlation to time were graphically represented and subjected to a non-compartmental analysis using the Phoenix WinNonlin 6.3 software program. The resulting pharmacokinetic parameters, including Clearance (Cl), Volume of distribution at steady state (Vdss) and initial concentration (C0) for intravenous administration; peak concentration (Cmax), time of peak concentration (Tmax), and bioavailability (% F) for extravascular administration; and half-life (T1/2), Area Under Curve from time zero to time t (AUC(0-t)), Area Under Curve from time zero to infinity (AUC(0-inf)), Mean Residence Time from time zero to time t (MRT(0-t)), Mean Residence Time from time zero to infinity (MRT(0-inf)) for all routes, were systematically calculated.

hKv7.4 = target: T2, hKv7.4 (Homo sapiens, UniProt P56696); experiment: Kv7.4 HCS, FLIPR potassium assay; type: cell-based
T2 construct: expressed in transfected cells; host or cells: CHO
Protocol: as §1, §2, §3, §4

[2] = Metabolite identification (Met-ID), human hepatocytes; type: in vitro ADME
Protocol: Cell culture and incubation: Cryopreserved hepatocyte cells, from human and rat sources, were purchased from commercial sources or in-house production, and were cultured in Williams' Medium E supplemented with glutamine and HEPES, in a humidified 5% CO2 incubator at 37° C., to a cell density of […]. Then, solutions of test compounds at a concentration of 10 μM, or 7-Ethoxycoumarin, as a positive control, at a concentration of 30 μM, in Eagle's Minimum Essential Medium, Catalog No. 30-2003 (ATCC) supplemented with 20% fetal bovine serum, were introduced and the mixture was incubated for 120 minutes, or other specified time points.
The samples were analyzed for metabolites using an LC-MS method developed on […] and PDA systems. Comparative analyses of mass spectra and ion fragmentation between the parent compound and its metabolites were carried out, and metabolic profiling was determined using the mass spectrometric and/or PDA (UV) response. Hypothetical structures of metabolites and their metabolic pathways were proposed.

[3] = rat, plasma, read-out: PK: Oral BA

T2 sequence (P56696 whole entry): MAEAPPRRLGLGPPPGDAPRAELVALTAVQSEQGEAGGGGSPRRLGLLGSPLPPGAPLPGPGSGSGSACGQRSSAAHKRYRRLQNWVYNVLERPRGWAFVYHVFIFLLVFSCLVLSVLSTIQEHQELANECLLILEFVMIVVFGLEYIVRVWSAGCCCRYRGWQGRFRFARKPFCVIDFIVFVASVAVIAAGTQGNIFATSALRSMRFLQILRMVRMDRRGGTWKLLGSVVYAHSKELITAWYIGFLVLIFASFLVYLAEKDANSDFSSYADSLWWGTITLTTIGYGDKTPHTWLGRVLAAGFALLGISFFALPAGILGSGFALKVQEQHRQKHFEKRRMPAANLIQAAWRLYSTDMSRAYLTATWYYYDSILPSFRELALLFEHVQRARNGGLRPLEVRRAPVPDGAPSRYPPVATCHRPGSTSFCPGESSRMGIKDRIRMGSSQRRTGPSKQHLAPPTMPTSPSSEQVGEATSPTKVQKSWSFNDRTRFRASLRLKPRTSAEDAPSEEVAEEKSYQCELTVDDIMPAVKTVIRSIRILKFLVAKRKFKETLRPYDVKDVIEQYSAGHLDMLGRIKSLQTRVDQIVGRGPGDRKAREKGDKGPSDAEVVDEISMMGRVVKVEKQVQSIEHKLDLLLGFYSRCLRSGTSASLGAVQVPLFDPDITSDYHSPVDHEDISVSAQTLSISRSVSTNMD
T1 sequence (O43525 whole entry): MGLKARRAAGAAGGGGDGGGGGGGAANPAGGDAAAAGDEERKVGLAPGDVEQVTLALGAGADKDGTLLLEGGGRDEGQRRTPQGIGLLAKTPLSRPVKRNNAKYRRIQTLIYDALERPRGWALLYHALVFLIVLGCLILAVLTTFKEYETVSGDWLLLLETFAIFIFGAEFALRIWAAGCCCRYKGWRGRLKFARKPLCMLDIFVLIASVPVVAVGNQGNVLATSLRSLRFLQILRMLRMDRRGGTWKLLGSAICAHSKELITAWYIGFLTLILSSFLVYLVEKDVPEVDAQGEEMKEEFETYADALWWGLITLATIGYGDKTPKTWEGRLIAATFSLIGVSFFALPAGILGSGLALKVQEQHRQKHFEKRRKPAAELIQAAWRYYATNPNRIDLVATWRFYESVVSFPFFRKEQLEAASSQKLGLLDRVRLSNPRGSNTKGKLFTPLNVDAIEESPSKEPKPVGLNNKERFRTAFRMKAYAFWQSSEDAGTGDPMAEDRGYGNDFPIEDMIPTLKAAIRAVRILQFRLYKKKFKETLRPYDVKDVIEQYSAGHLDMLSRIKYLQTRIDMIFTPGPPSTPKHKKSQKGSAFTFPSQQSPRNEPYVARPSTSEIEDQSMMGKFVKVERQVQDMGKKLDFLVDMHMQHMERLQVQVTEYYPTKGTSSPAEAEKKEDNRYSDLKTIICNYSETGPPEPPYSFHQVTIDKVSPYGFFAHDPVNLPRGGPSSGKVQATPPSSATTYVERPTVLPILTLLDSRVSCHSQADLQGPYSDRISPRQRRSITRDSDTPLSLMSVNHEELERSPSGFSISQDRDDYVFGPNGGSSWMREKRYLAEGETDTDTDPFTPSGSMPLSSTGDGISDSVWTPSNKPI
T1 sequence (Q9NR82 whole entry): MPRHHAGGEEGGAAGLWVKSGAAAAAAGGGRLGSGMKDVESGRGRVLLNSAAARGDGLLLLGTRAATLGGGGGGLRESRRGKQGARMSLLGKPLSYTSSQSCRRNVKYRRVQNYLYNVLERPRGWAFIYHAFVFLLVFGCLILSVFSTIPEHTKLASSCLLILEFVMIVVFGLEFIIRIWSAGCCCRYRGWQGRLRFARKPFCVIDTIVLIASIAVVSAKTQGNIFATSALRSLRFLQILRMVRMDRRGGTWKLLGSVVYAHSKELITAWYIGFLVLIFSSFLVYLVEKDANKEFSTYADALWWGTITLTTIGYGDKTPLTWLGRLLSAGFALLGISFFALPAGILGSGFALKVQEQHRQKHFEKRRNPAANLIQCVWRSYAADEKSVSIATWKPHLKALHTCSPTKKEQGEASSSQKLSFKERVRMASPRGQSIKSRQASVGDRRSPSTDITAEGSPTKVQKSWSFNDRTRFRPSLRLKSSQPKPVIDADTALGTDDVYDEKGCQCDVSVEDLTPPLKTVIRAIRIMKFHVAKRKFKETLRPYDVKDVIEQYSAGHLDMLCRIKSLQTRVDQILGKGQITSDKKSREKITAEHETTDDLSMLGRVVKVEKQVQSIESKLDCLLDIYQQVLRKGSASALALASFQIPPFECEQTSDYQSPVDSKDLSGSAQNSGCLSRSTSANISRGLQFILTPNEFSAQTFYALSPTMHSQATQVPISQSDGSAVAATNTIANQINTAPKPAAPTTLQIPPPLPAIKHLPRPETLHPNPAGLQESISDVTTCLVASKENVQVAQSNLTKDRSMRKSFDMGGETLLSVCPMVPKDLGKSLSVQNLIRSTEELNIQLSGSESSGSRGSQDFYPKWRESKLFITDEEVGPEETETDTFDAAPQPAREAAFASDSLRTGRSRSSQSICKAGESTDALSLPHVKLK

Structure (SMILES)	pEC50 (hKv7.3/5; read-out: Kv7.3/5 EC50 HCS)	fraction unbound at 4 h, 2 µM [1]	clearance (Rat pharmacokinetics; rat, plasma, iv, 1 mg/kg)	bioavailability (Rat pharmacokinetics; [3])	pEC50 (hKv7.4; read-out: Kv7.4 EC50 HCS)	half-life (Rat pharmacokinetics; rat, plasma)	Kv7.4 activity (hKv7.4)	Human Hepatocytes MetID (glutathione conjugation) ([2]; human hepatocytes)	also measured
O=C(Cc1nccc(-n2cc(Cl)c3cc(Cl)cc(Cl)c32)n1)NC1COCC1O (centres unmarked) [Compound 760]			60.1 mL/min/kg			2.68 h	lacks any effect on hERG and Kv7.3/4/5 activity below 10 μM	did not indicate the presence of glutathione conjugation and None	pEC50 (hKv7.3/5; Thallium ions (Tl+) fluorescence, read-out: hKv7.3/5 EC50): 4.97; Vd (Rat pharmacokinetics; rat, plasma, iv, 1 mg/kg, read-out: Volume of distribution at steady state (Vdss)): 2.37 L/kg; bioavailability (Rat pharmacokinetics; rat, plasma, read-out: Oral bioavailability): 48.6%; pEC50 (hKv7.4; Thallium ions (Tl+) fluorescence, read-out: hKv7.4 EC50): 4.34
O=C(Cc1ccnc(-n2cc(Cl)c3cc(Cl)cc(Cl)c32)n1)N[C@@H]1COC[C@H]1O [Compound 820]								did not indicate the presence of glutathione conjugation and None	
O=C(Cc1cc(-n2cc(C(F)(F)F)c3cc(Cl)cc(Cl)c32)ncn1)NCCO [Compound 843]			6.6 mL/min/kg	73.4%				did not indicate the presence of glutathione conjugation	Human Hepatocytes MetID ([2]; human hepatocytes): 0.2%

Now from value to compound, other results behind:

pEC50 (hKv7.3/5; read-out: Kv7.3/5 EC50 HCS)	fraction unbound at 4 h, 2 µM [1]	clearance (Rat pharmacokinetics; rat, plasma, iv, 1 mg/kg)	bioavailability (Rat pharmacokinetics; [3])	pEC50 (hKv7.4; read-out: Kv7.4 EC50 HCS)	half-life (Rat pharmacokinetics; rat, plasma)	Structure (SMILES)	Kv7.4 activity (hKv7.4)	Human Hepatocytes MetID (glutathione conjugation) ([2]; human hepatocytes)	also measured
5.52	0.0004	38.5 mL/min/kg	10.6%	< 5.70		Cc1cn(-c2ccc(F)c(CC(=O)NCC(C)(C)O)c2)c2c(Cl)cc(Cl)cc12 [Compound 421]			
< 6.22	0.0004	65.8 mL/min/kg	25.3%	4.06	1.48 h	O=C(Cc1cc(-n2cc(Cl)c3cc(Cl)cc(Cl)c32)ccc1F)NCCO [Compound 627]			
4.39	0.0029	35.7 mL/min/kg	28.8%	4.31	2.49 h	O=C(Cc1cncc(-n2cc(Cl)c3cc(Cl)cc(Cl)c32)c1)N[C@@H]1COC[C@H]1O [Compound 661]	no measurable activity at any concentration tested		Metabolites M1-M7 (glutathione conjugation), share of identified metabolites [2]: 2.09%; Multiple of free plasma exposure over IC50 (rat DRG) (Rat pharmacokinetics; 10 mg/kg oral): 30 fold; Free plasma exposure, fu plasma C8 hour (Rat pharmacokinetics; 10 mg/kg oral, 8 hours): 0.09 nM; Dose from which efficacious levels are expected (Rat pharmacokinetics; oral, extrapolated from 10 mg/kg): 2 mg/kg
